According to US8653278B2, “Isoform selective HDAC inhibitors” (Georgetown University, priority 2006, dated 2014):
“Also recorded” adds a separate entry of the source. Like-named read-outs stand apart in the source and are kept apart here. Each block holds one molecule with its values, some of them ahead of it.

How the values were obtained:
HDAC [1] = tested on: T1, HDAC; test: in vitro HDAC inhibitory activity, HDAC Fluor-Lys as substrate (BIOMOL); format: biochemical; conditions: for IC50: read-out: IC50, concentration required to achieve 50% inhibition of HDAC activity
T1 construct: other: HDAC Fluor-Lys substrate; other: at concentrations of 1 μM
Procedure: The in vitro HDAC inhibitory activity of the synthesized compounds was determined by using HDAC Fluor-Lys as the substrate (BIOMOL). […] SAHA was used as a positive control.

HDAC1 = molecular target: T2, HDAC1 (Homo sapiens, UniProt Q13547); test: class I HDAC isoform activity, immunoprecipitate from HeLa nuclear extracts; format: biochemical; conditions: 0.5 μM of the test compound
T2 construct: endogenous in cells; host or cells: HeLa nuclear extract, immunoprecipitate
T2 sequence (Q13547 whole entry, canonical isoform): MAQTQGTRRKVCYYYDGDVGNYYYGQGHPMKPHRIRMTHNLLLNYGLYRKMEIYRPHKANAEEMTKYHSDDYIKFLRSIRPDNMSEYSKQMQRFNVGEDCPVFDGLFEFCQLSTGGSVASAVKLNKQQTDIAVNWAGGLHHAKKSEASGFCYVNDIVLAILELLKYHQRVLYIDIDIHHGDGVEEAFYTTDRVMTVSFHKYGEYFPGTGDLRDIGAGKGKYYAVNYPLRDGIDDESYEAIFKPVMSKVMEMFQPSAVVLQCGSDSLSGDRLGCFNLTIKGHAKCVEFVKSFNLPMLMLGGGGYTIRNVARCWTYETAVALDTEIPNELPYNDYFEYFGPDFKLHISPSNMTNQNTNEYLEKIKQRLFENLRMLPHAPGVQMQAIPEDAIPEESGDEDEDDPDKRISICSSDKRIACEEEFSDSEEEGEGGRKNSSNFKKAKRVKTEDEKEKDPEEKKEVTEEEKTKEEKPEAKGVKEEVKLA
From the text: (§1) FIG. 10 depicts the effect of HDAC inhibitors, including selected compounds of the invention, on Class I HDAC isoform activities. Note that (a) denotes that HeLa nuclear extracts were used for immunoprecipitation (IP) with antibodies against HDAC 1-3; and (b) denotes that recombinant protein was used for HDAC 8. Note: TSA is trichostatin A.
(§2) To test whether the modified CAP region of the HDACIs is able to target specific HDAC isoform enzyme activity, the compounds were examined for class I HDAC isoform inhibitory activities using recombinant HDAC8 and immunoprecipitates of the other HDAC isoforms (HDAC 1, 2, 3) using nuclear extracts from HeLa cells. […] The data shown in FIG. 10 represent the HDAC inhibitory activity remaining after addition of 0.5 μM of the test compounds.

HDAC2 = molecular target: T3, HDAC2 (Homo sapiens, UniProt Q92769); test: as above; format: biochemical; conditions: 0.5 μM of the test compound
T3 construct: endogenous in cells; host or cells: HeLa nuclear extract, immunoprecipitate
T3 sequence (Q92769 whole entry): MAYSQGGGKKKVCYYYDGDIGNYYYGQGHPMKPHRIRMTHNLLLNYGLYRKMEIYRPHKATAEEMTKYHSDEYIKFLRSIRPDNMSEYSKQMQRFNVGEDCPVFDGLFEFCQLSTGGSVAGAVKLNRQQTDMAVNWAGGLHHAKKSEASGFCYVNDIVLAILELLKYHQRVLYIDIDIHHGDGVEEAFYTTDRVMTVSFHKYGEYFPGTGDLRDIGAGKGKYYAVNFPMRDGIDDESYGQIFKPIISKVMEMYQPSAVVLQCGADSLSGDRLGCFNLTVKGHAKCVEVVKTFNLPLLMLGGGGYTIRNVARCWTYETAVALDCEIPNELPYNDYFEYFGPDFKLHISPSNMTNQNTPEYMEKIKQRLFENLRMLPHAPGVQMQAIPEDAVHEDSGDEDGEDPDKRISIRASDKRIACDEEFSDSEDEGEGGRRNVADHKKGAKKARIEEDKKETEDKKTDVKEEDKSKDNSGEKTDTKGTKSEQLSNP
From the text: as §1, §2

HDAC3 = molecular target: T4, HDAC3 (Homo sapiens, UniProt O15379); test: as above; format: biochemical; conditions: after addition of 0.5 μM of the test compound
T4 construct: endogenous in cells; host or cells: HeLa nuclear extract, immunoprecipitate
T4 sequence (O15379 whole entry): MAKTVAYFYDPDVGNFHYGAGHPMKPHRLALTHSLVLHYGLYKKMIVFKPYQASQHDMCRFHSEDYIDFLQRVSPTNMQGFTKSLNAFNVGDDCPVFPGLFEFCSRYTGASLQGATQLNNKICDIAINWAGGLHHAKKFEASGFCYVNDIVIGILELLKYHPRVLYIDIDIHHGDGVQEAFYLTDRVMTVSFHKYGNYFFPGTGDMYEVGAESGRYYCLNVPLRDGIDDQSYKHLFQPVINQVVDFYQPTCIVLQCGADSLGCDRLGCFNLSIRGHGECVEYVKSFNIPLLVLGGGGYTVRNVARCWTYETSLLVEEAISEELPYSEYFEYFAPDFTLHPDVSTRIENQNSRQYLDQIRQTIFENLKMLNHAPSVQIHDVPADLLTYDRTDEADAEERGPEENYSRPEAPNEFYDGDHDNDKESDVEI
T4 sequence (Q9Y618 whole entry partner): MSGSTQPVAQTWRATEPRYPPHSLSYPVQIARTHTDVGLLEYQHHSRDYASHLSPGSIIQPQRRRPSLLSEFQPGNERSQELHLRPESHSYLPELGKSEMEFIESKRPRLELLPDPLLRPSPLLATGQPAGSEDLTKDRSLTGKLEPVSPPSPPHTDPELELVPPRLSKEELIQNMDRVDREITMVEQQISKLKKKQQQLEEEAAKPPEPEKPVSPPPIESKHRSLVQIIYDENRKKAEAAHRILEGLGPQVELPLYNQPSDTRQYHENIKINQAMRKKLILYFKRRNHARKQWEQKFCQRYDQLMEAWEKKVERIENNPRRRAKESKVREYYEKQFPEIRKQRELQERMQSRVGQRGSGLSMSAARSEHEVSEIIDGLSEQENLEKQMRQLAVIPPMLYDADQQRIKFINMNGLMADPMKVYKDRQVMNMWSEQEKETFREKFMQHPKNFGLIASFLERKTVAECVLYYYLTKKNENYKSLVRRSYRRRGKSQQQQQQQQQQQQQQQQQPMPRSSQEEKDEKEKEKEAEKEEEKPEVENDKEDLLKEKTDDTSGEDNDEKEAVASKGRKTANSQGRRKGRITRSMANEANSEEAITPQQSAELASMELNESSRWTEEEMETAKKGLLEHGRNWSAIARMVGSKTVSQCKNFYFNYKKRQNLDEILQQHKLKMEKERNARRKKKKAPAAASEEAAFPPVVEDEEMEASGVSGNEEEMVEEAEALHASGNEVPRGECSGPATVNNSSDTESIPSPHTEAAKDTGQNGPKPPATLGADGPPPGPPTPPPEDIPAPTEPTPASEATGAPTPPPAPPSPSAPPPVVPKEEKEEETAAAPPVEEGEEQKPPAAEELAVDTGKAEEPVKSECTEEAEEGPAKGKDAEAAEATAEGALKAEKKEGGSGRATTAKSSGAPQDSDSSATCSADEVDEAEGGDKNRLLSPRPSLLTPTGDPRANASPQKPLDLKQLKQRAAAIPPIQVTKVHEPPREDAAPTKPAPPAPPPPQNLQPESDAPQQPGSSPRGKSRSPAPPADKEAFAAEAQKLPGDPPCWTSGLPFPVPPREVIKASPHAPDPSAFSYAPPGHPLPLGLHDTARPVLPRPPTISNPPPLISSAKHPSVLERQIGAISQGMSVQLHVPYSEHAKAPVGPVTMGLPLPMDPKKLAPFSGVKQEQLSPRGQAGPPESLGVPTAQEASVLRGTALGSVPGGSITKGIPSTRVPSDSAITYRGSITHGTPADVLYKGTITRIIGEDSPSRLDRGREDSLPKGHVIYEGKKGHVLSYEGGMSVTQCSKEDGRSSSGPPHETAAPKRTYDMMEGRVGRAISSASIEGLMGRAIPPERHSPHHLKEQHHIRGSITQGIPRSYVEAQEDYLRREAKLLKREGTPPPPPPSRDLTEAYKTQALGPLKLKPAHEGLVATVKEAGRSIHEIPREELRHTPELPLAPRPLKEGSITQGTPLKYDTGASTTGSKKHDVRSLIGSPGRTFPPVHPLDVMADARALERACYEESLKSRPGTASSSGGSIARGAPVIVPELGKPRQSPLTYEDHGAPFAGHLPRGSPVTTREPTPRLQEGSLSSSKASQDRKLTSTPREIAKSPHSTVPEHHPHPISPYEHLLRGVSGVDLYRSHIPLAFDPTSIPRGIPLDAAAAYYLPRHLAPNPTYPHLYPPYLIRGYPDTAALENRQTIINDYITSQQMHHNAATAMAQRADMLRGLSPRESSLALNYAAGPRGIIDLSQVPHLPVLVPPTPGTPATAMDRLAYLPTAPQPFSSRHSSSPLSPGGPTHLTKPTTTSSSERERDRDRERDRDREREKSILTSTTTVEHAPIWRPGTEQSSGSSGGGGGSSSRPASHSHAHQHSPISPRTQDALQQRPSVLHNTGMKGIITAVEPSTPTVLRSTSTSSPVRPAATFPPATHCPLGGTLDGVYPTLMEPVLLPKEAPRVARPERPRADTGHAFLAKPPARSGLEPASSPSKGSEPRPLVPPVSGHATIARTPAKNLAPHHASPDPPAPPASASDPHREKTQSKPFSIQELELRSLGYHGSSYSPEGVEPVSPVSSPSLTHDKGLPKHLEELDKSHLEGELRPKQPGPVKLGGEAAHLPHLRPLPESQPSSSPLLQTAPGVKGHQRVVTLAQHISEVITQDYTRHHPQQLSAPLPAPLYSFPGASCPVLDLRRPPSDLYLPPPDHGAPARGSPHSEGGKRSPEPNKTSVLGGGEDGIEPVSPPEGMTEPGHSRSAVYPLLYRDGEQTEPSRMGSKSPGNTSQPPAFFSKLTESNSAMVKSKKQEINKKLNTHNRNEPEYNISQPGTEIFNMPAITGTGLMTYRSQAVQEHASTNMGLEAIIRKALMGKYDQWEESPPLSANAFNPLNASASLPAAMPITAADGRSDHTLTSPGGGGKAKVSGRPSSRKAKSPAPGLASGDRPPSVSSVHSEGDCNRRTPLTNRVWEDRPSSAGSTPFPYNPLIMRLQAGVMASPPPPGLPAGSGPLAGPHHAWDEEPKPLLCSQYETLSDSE
From the text: as §1, §2

[2] = tested on: prostate cancer (PC-3), breast cancer (MCF-7), cervical cancer (HeLa), squamous carcinoma (SQ-20B); test: antiproliferative activity in cancer cell lines; format: cell-based; conditions: PC-3, MCF-7, HeLa
Procedure: (§3) One of characteristics of the HDAC inhibitors relates to their ability to inhibit the growth of transformed cells. The compounds capable of modifying histones in the cell were tested for their biological effects.

HDAC8 = molecular target: T5, HDAC8 (Homo sapiens, UniProt Q9BY41); test: class I HDAC isoform activity, recombinant protein; format: biochemical; conditions: after addition of 0.5 μM of the test compound
T5 sequence (Q9BY41 1-377): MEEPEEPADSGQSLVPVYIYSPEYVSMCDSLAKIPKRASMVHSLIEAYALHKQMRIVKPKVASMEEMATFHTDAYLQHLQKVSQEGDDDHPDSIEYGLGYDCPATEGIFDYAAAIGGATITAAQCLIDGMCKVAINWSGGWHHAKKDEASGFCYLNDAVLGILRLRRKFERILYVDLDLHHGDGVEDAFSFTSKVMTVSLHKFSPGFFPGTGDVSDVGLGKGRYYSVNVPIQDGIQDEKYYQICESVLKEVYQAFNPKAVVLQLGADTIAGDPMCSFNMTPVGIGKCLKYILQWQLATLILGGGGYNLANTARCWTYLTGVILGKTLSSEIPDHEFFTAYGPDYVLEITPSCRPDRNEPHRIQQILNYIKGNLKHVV
From the text: as §1, §2

[3] = tested on: mouse model of Huntington's disease; conditions: cited from earlier work
[4] = tested on: human normal fibroblasts (NHP-5); test: growth inhibition of normal cells NHP-5; format: cell-based; conditions: Fibroblast
Procedure: as §3

[5] = tested on: human normal primary skin fibroblasts (Hs-68); test: growth inhibition of normal cells Hs-68; format: cell-based; conditions: Hs68
Procedure: as §3

Plasmodium falciparum = conditions: human malaria parasite Plasmodium falciparum; cited from earlier work
HDAC 1, 2, 3 and HDAC8 = test: class I HDAC isoform panel, comparison across isoforms; format: biochemical; conditions: 0.5 μM of the test compound; HDAC 1, 2, 3, 8
From the text: as §1, with “8.” for “8. Note: TSA is trichostatin A.”

HDAC [6] = conditions: read-out: reported IC50; literature value; cited from earlier work

Molecule: O=C(CCCCCCC(=O)Nc1ccc(-c2ccccc2NC(=O)C2CCCN2)cc1)NO (stereo not drawn) [7c, octanedioic acid hydroxyamide {2′-[(pyrrolidine-2-carbonyl)-amino]-biphenyl-4-yl}-amide]
HDAC inhibitory activity (in words) (HDAC [1]; HDAC Fluor-Lys substrate): approximately equipotent in their activity to SAHA

inhibition of HDAC1 activity (in words) (HDAC1): strong tendency to inhibit
inhibition of HDAC2 activity (in words) (HDAC2): strong tendency to inhibit
remaining activity at 0.5 µM (HDAC3): > 30%
remaining activity at 0.5 µM (HDAC8): > 30%
Molecule: O=C(CCCCCCC(=O)Nc1nc(-c2cccc([N+](=O)[O-])c2)cs1)NO [compound 19, octanedioic acid hydroxyamide [4-(3-Nitro-phenyl)-thiazol-2-yl]-amide]
antiproliferative / growth inhibitory activity (in words) [2]: submicromolar activity

IC50 (HDAC [1]; HDAC Fluor-Lys substrate): 50 nM
Molecule: NC(Cc1ccc(O)cc1)C(=O)Nc1ccccc1-c1ccc(NC(=O)CCCCCCC(=O)NO)cc1 (stereo not drawn) [7e, octanedioic acid {2′-[2-amino-3-(4-hydroxy-phenyl)-propionylamino]-biphenyl-4-yl}-amide hydroxyamide]

Molecule: O=C(CCCCCCC(=O)Nc1ccccc1)NO [SAHA, suberoylanilide hydroxamic acid]
motor impairment ([3]; mouse model of Huntington's disease): improve dramatically the motor impairment
brain penetration ([3]; mouse, in vivo): penetrate into the brain

Molecule: NC(Cc1ccccc1)C(=O)Nc1ccccc1-c1ccc(NC(=O)CCCCCCC(=O)NO)cc1 (stereo not drawn) [7b, octanedioic acid [2′-(2-amino-3-phenyl-propionylamino)-biphenyl-4-yl]-amide hydroxyamide]
antiproliferative / growth inhibitory activity (in words) [2]: good growth inhibitory activity
IC50 [4]: 80000 nM
IC50 [5]: > 300000 nM
HDAC inhibitory activity (in words) (HDAC [1]): approximately equipotent in their activity to SAHA

IC50 (HDAC [1]; HDAC Fluor-Lys substrate): 5 nM
Molecule: CCOC(=O)Nc1cccc(-c2csc(NC(=O)CCCCCCC(=O)NO)n2)c1 [compound 22, {3-[2-(7-hydroxycarbamoyl-heptanoylamino)-thiazol-4-yl]-phenyl}-carbamic acid ethyl ester]
antiproliferative / growth inhibitory activity (in words) [2]: submicromolar activity; also recorded: impressive antiproliferative activity
potency relative to trichostatin A (HDAC [1]; IC50 compared with reported IC50 of trichostatin A): approximately two-fold

Molecule: NC(Cc1ccc(O)cc1)C(=O)Nc1ccccc1-c1ccc(NC(=O)CCCCCNC(=O)CS)cc1 (stereo not drawn) [10e, 6-(2-mercapto-acetylamino)-hexanoic acid {2′-[2-amino-3-(4-hydroxy-phenyl)-propionylamino]-biphenyl-4-yl}-amide]
HDAC inhibitory activity at a fixed concentration (in words) (HDAC [1]; at concentrations of 1 μM): inactive

IC50 (HDAC [1]; HDAC Fluor-Lys substrate): 50 nM
Molecule: O=C(CCCCCCC(=O)Nc1nc(-c2ccccc2[N+](=O)[O-])cs1)NO [compound 17, octanedioic acid hydroxyamide [4-(2-nitro-phenyl)-thiazol-2-yl]-amide]

Molecule: Nc1ccccc1-c1csc(NC(=O)CCCCCCC(=O)NO)n1 [compound 16, octanedioic acid hydroxyamide [4-(2-amino-phenyl)-thiazol-2-yl]-amide]
HDAC inhibitory activity (in words) (HDAC [1]; HDAC Fluor-Lys substrate): poorly active

IC50 (HDAC [1]): 7000 nM
Molecule: NCC(=O)Nc1ccccc1-c1ccc(NC(=O)CCCCCNC(=O)CS)cc1 [10a, 6-(2-mercapto-acetylamino)-hexanoic acid [2′-(2-amino-acetylamino)-biphenyl-4-yl]-amide]

inhibition of HDAC1 activity (in words) (HDAC1): strong tendency to inhibit
inhibition of HDAC2 activity (in words) (HDAC2): strong tendency to inhibit
remaining activity at 0.5 µM (HDAC3): > 30%
remaining activity at 0.5 µM (HDAC8): > 30%
IC50 (HDAC [1]; HDAC Fluor-Lys substrate): 8 nM
Molecule: Nc1cccc(-c2csc(NC(=O)CCCCCCC(=O)NO)n2)c1 [compound 23, octanedioic acid hydroxyamide [4-(3-amino-phenyl)-thiazol-2-yl]-amide]
antiproliferative / growth inhibitory activity (in words) [2]: submicromolar activity

IC50 (HDAC [1]): 3000 nM
Molecule: NC(Cc1ccccc1)C(=O)Nc1ccccc1-c1ccc(NC(=O)CCCCCNC(=O)CS)cc1 (stereo not drawn) [10b, 6-(2-Mercapto-acetylamino)-hexanoic acid [2′-(2-amino-3-phenyl-propionylamino)-biphenyl-4-yl]-amide]

Molecule: COc1ccc(CCN(C)CCCC(C#N)(c2ccc(OC)c(OC)c2)C(C)C)cc1OC (stereo not drawn) [Verapamil]
reversal of chloroquine resistance (Plasmodium falciparum): reverse chloroquine resistance

Molecule: NC(Cc1c[nH]c2ccccc12)C(=O)Nc1ccccc1-c1ccc(NC(=O)CCCCCCC(=O)NO)cc1 (stereo not drawn) [7d, octanedioic acid {2′-[2-amino-3-(1H-indol-3-yl)-propionylamino]-biphenyl-4-yl}-amide hydroxyamide]
IC50 [4]: 100000 nM
IC50 (HDAC [1]): 30 nM

Molecule: NC(Cc1c[nH]c2ccccc12)C(=O)Nc1ccccc1-c1ccc(NC(=O)CCCCCNC(=O)CS)cc1 (stereo not drawn) [10d, 6-(2-mercapto-acetylamino)-hexanoic acid {2′-[2-amino-3-(1H-indol-3-yl)-propionylamino]-biphenyl-4-yl}-amide]
HDAC inhibitory activity at a fixed concentration (in words) (HDAC [1]): inactive

IC50 (HDAC [1]; HDAC Fluor-Lys substrate): 200 nM
Molecule: NCC(=O)Nc1ccccc1-c1ccc(NC(=O)CCCCCCC(=O)NO)cc1 [7a, octanedioic acid [2′-(2-amino-acetylamino)-biphenyl-4-yl]-amide hydroxyamide]
IC50 [4]: > 500000 nM
IC50 [5]: > 500000 nM

Molecule: trichostatin A
class I HDAC isoform inhibitory activity and selectivity (in words) (HDAC 1, 2, 3 and HDAC8): more effective for inhibiting HDACs 1 and 2
IC50 (HDAC [6]): 12 nM
